Experimental data as given in patent US10016382B2, “Method for decreasing skeletal muscle damage and/or oxidative stress in mammals” (LONZA INC., priority 2014, dated 2018).
Several values for one entry are separate records, joined by “and”; a condition that tells them apart may be missing. Equal entries are not always repeated.

Assays:
Assay type in all cases: in vivo, dog
[1] = Daily food consumption, Example 1; conditions: Ex.1, 250 mg/d; for Daily Food Intake: mean ± SEM
Procedure: Experimental Design: Forty Labrador Retrievers (labs) ranging in age from 1 to 3.5 years were incorporated into a two dietary treatment study. The two dietary treatments were based on feeding the test dogs the same low L-carnitine diet but adding 250 mg per day of L-carnitine to the L-carnitine group. Each of the L-carnitine dogs received the daily 250 mg of L-carnitine mixed with an additional 3.75 g sugar. The control dogs received 4 g of sugar each day. Twenty labs of equal gender, age, excitement level, frame size, body weight and genetic background were utilized for each of the two treatments. The labs utilized for the nutrition study were from a minimum of 6 different bitches. The lean body mass of the 40 test dogs was determined by scanning with the DEXA and the final key component utilized to assure equal groups. Prior to the start of the study, the labs were acclimated to the experimental diets for a minimum of 10 days. The labs were weighed at the beginning of the 90 day study and weighed every two weeks throughout the study. Feed consumption was determined daily by weighing feed provided and feed refusals. The quantity of food provided each dog on a daily basis was adjusted based on maintaining a minimum initial starting body weight throughout the study. The dog food was provided by Lonza Inc. and was equal to the minimum guaranteed analysis of Gold N Pro (MFA of Missouri) that the performance dogs had been consuming prior to the start of the study (Table 1).

[2] = system: Labrador Retrievers; experiment: Heart rate and body temperature recovery following 15 mile run, Example 2 part one; conditions: for Temperature After Run: in °F (unit assumed)
Procedure: Each performance dog wore the Actical activity monitor and GPS tracking collar during the last 15 mile endurance run. The final run was conducted in a manner analogous to that of Example 1. All activity was accurately and precisely calculated using the GPS tracking monitors. Immediately following the 15 mile endurance run, each dog was placed in a kennel and evaluated for recovery time in body temperature (every 15 minutes for 2 hours) and heart rate (every 2 minutes for up to 20 minutes until basal beats per minute (BPM) was reached). Body temperature and heart rate were measured as described in Example 1.

[3] = system: creatine kinase; experiment: Serum creatine kinase, Example 2 part one; conditions: for Creatine Kinase: serum
Procedure: Twenty-four hours after test dogs ran the last 15 mile endurance run, serum samples were taken to evaluate biomarkers for muscle damage and antioxidant status. Blood samples were taken 1) just prior to the beginning of the study; 2) 1 day prior to running the final 15 mile run on the 14th week; 3) 1 hour immediately following the 15 mile run; and 4) 24 hours following the final 15 mile run. After a blood sample was drawn, it was allowed to clot for 30 minutes at 25° C. before being centrifuged for 15 minutes at 2000 g at 4° C. Serum was aliquoted into 0.65 mL microcentrifuge tubes and stored at −80° C. until being assayed at the end of the study for creatine kinase, canine myoglobin, thiobarbituric acid reactive substances (TBARS), and total antioxidant capacity (TAC) using the commercially available kits described in Example 1.

Compound: C[N+](C)(C)C[C@H](O)CC(=O)[O-] [L-carnitine]
- Daily Food Intake ([1]; Week 2): 723 ± 26 n = 20 g
- Daily Food Intake ([1]; Week 4): 636 ± 30 n = 20 g
- Daily Food Intake ([1]; Week 5): 639 ± 27 n = 20 g
- Daily Food Intake ([1]; Week 6): 651 ± 26 n = 20 g
- Daily Food Intake ([1]; Week 7): 626 ± 24 n = 20 g
- Daily Food Intake ([1]; Week 8): 626 ± 24 n = 20 g
- Daily Food Intake ([1]; Week 9): 622 ± 26 n = 20 g
- Daily Food Intake ([1]; Week 10): 570 ± 25 n = 20 g
- Daily Food Intake ([1]; Week 11): 577 ± 24 n = 20 g
- Daily Food Intake ([1]; Week 13): 555 ± 20 n = 20 g
- Food consumption vs control ([1]; over the entire 13 wk period): not significantly different
- Daily Food Intake ([1]; overall Average of 13 wk study): 626 g and 626 ± 24 n = 20 g
- Heartrate after run ([2]; Ex.2 part one, 250 mg/d, 4 minutes post final run, both sexes): 156.15 BPM
- Heartrate after run ([2]; Ex.2 part one, 250 mg/d, 4 minutes post final run, males): 160 BPM
- Heartrate after run ([2]; Ex.2 part one, 250 mg/d, immediately following 15 mile run, both sexes): 184.23 BPM
- Return to basal temperature vs control (regression model) ([2]; Ex.2 part one, 250 mg/d, males and females, FIGS. 5A, 5B): reached basal temperatures faster
- Return to basal heart rate vs control (regression model) ([2]; Ex.2 part one, 250 mg/d, overall group, males and females, FIGS. 4A, 4B): reached basal heart rate faster
- Temperature After Run ([2]; Females, Temp - 0 min after 15 mile run): 105.16 ± 0.35
- Temperature After Run ([2]; Females, Temp - 15 min after 15 mile run): 102.69 ± 0.24
- Temperature After Run ([2]; Females, Temp - 30 min after 15 mile run): 101.31 ± 0.2
- Temperature After Run ([2]; Females, Temp - 45 min after 15 mile run): 101.16 ± 0.2
- Temperature After Run ([2]; Females, Temp - 60 min after 15 mile run): 101.14 ± 0.2
- Heartrate After Run ([2]; Females, Time - 0 min after 15 mile run): 180.83 ± 3.36 BPM
- Heartrate After Run ([2]; Females, Time - 2 min after 15 mile run): 165 ± 6.09 BPM
- Heartrate After Run ([2]; Females, Time - 4 min after 15 mile run): 152.31 ± 6.71 BPM
- Heartrate After Run ([2]; Females, Time - 6 min after 15 mile run): 149.17 ± 6.21 BPM
- Heartrate After Run ([2]; Females, Time - 8 min after 15 mile run): 135 ± 6.34 BPM
- Heartrate After Run ([2]; Females, Time - 10 min after 15 mile run): 117.9 ± 7.45 BPM
- Heartrate After Run ([2]; Females, Time - 12 min after 15 mile run): 113.08 ± 8.5 BPM
- Heartrate After Run ([2]; Females, Time - 14 min after 15 mile run): 107.27 ± 8.95 BPM
- Heartrate After Run ([2]; Females, Time - 16 min after 15 mile run): 78.57 ± 5.73 BPM
- Heartrate After Run ([2]; Females, Time - 18 min after 15 mile run): 77.86 ± 5.47 BPM
- Heartrate After Run ([2]; Females, Time - 20 min after 15 mile run): 77.14 ± 5.29 BPM
- Temperature After Run ([2]; Males, Temp - 0 min after 15 mile run): 105.79 ± 0.36
- Temperature After Run ([2]; Males, Temp - 15 min after 15 mile run): 102.39 ± 0.4
- Temperature After Run ([2]; Males, Temp - 30 min after 15 mile run): 100.94 ± 0.23
- Temperature After Run ([2]; Males, Temp - 45 min after 15 mile run): 100.87 ± 0.19
- Temperature After Run ([2]; Males, Temp - 60 min after 15 mile run): 100.87 ± 0.19
- Heartrate After Run ([2]; Males, Time - 0 min after 15 mile run): 187.14 ± 3.54 BPM
- Heartrate After Run ([2]; Males, Time - 2 min after 15 mile run): 172.14 ± 3.81 BPM
- Heartrate After Run ([2]; Males, Time - 4 min after 15 mile run): 160 ± 4.94 BPM
- Heartrate After Run ([2]; Males, Time - 6 min after 15 mile run): 142.86 ± 5.59 BPM
- Heartrate After Run ([2]; Males, Time - 8 min after 15 mile run): 129.29 ± 5.29 BPM
- Heartrate After Run ([2]; Males, Time - 10 min after 15 mile run): 122.86 ± 3.7 BPM
- Heartrate After Run ([2]; Males, Time - 12 min after 15 mile run): 108.57 ± 3.76 BPM
- Heartrate After Run ([2]; Males, Time - 14 min after 15 mile run): 95 ± 3.1 BPM
- Heartrate After Run ([2]; Males, Time - 16 min after 15 mile run): 92.14 ± 3 BPM
- Heartrate After Run ([2]; Males, Time - 18 min after 15 mile run): 89.29 ± 2.21 BPM
- Heartrate After Run ([2]; Males, Time - 20 min after 15 mile run): 89.29 ± 2.21 BPM
- Temperature After Run ([2]; Whole Groups, Temp - 0 min after 15 mile run): 105.48 ± 0.25
- Temperature After Run ([2]; Whole Groups, Temp - 15 min after 15 mile run): 102.54 ± 0.23
- Temperature After Run ([2]; Whole Groups, Temp - 30 min after 15 mile run): 101.12 ± 0.15
- Temperature After Run ([2]; Whole Groups, Temp - 45 min after 15 mile run): 101.01 ± 0.14
- Temperature After Run ([2]; Whole Groups, Temp - 60 min after 15 mile run): 101.01 ± 0.14
- Heartrate After Run ([2]; Whole Groups, Time - 0 min after 15 mile run): 184.23 ± 2.49 BPM
- Heartrate After Run ([2]; Whole Groups, Time - 2 min after 15 mile run): 168.85 ± 3.48 BPM
- Heartrate After Run ([2]; Whole Groups, Time - 4 min after 15 mile run): 156.15 ± 4.15 BPM
- Heartrate After Run ([2]; Whole Groups, Time - 6 min after 15 mile run): 145.77 ± 4.12 BPM
- Heartrate After Run ([2]; Whole Groups, Time - 8 min after 15 mile run): 131.92 ± 4.04 BPM
- Heartrate After Run ([2]; Whole Groups, Time - 10 min after 15 mile run): 120.79 ± 3.72 BPM
- Heartrate After Run ([2]; Whole Groups, Time - 12 min after 15 mile run): 110.74 ± 4.46 BPM
- Heartrate After Run ([2]; Whole Groups, Time - 14 min after 15 mile run): 100.4 ± 4.38 BPM
- Heartrate After Run ([2]; Whole Groups, Time - 16 min after 15 mile run): 85.36 ± 3.43 BPM
- Heartrate After Run ([2]; Whole Groups, Time - 18 min after 15 mile run): 83.57 ± 3.1 BPM
- Heartrate After Run ([2]; Whole Groups, Time - 20 min after 15 mile run): 83.21 ± 3.05 BPM
- CK increase from pre-run values ([3]; Ex.2 part one, 250 mg/d, 1 hour post-endurance run): 10.81 units
- CK values, serum ([3]; Ex.2 part one, 250 mg/d, 1 hour post-run): 26.39 mU/mL
- CK values, serum ([3]; Ex.2 part one, 250 mg/d, 24 hour post-run): 23.06 mU/mL
- Creatine Kinase ([3]; FEMALES, Baseline): 26.44 ± 3.08 mU · mL
- Creatine Kinase ([3]; FEMALES, Post-Run 1 Hr): 26.8 ± 1.36 mU · mL
- Creatine Kinase ([3]; FEMALES, Post-Run 24 Hr): 21.71 ± 0.79 mU · mL
- Creatine Kinase ([3]; FEMALES, Pre-Run): 17.14 ± 1.96 mU · mL
- Creatine Kinase ([3]; MALES, Baseline): 20.81 ± 2.98 mU/mL
- Creatine Kinase ([3]; MALES, Post-Run 1 Hr): 25.98 ± 1.39 mU/mL
- Creatine Kinase ([3]; MALES, Post-Run 24 Hr): 24.4 ± 1.53 mU/mL
- Creatine Kinase ([3]; MALES, Pre-Run): 14.02 ± 1.98 mU/mL
- Creatine Kinase ([3]; Whole Groups, Baseline): 23.63 ± 2.17 mU/mL
- Creatine Kinase ([3]; Whole Groups, Post-Run 1 Hr, Post-Run 1 Hr): 26.39 ± 0.96 mU/mL
- Creatine Kinase ([3]; Whole Groups, Post-Run 24 Hr, Post-Run 24 Hr): 23.06 ± 0.88 mU/mL
- Creatine Kinase ([3]; Whole Groups, Pre-Run): 15.58 ± 1.4 mU/mL
